Experimental data reported in ChEMBL document CHEMBL1143673, “Benzothiophene selective estrogen receptor modulators with modulated oxidative activity and receptor affinity” (J Med Chem, 2007).

Assays:
[1] = biological target: T1, Estrogen receptor beta (Homo sapiens, UniProt Q92731); test: Displacement of [3H]estradiol from human recombinant ERbeta relative to estradiol
[2] = biological target: T2, Estrogen receptor (Homo sapiens, UniProt P03372)
T2 sequence (P03372 whole entry): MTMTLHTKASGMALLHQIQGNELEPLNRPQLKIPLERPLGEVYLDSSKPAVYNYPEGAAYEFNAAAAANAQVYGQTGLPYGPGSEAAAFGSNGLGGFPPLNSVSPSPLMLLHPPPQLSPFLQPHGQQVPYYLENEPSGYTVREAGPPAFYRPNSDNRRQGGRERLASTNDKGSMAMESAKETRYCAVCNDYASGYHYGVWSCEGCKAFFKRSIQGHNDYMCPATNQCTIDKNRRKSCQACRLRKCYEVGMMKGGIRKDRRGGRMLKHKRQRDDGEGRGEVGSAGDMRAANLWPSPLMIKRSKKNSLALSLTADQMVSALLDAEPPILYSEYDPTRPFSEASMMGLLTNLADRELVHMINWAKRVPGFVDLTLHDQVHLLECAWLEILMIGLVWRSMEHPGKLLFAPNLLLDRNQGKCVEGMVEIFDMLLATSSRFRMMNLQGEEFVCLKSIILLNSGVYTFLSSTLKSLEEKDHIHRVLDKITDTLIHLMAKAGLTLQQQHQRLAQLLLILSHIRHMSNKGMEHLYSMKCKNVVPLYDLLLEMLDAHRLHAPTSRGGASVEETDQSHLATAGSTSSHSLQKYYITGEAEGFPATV
Description: Displacement of [3H]estradiol from human recombinant ERalpha

[3] = species on record: Homo sapiens; test: Selectivity for human ERalpha over human ERbeta
[4] = biological target: T1, Estrogen receptor beta; test: Displacement of [3H]estradiol from human recombinant ERbeta

T1 sequence (Q92731 whole entry): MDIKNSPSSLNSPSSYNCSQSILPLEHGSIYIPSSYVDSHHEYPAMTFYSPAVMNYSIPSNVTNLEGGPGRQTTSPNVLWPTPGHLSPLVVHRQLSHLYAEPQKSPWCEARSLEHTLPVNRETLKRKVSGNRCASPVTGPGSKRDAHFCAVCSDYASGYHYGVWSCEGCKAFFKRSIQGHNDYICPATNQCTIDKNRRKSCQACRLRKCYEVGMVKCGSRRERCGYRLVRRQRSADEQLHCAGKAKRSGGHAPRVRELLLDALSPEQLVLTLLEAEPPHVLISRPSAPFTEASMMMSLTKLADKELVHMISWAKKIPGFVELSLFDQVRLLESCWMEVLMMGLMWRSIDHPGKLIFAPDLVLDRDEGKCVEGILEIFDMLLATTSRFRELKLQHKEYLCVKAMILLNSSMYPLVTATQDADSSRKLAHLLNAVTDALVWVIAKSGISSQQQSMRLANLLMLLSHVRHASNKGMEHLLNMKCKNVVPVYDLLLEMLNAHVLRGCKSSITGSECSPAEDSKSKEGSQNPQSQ

Row | Compound | relative binding affinity (RBA) [1] | IC50 [2] [nM] | Ratio [3] | IC50 [4] [nM]
1 | COc1ccc(-c2sc3cc(O)ccc3c2Oc2ccc(OCCN3CCCCC3)cc2)cc1 | 0.25 | – | – | –
2 | CS(=O)(=O)c1ccc(-c2sc3cc(O)ccc3c2Oc2ccc(OCCN3CCCCC3)cc2)cc1 | 0.009 | 27 | 79 | 1800
3 | Oc1ccc(-c2sc3cc(O)ccc3c2Oc2ccc(OCCN3CCCCC3)cc2)cc1 | 1.77 | – | – | 9.6
4 | Oc1ccc2c(Oc3ccc(OCCN4CCCCC4)cc3)c(-c3ccc(F)cc3)sc2c1 | 0.68 | 17.2 | 1.6 | 27.9
5 | Oc1ccc2c(Oc3ccc(OCCN4CCCCC4)cc3)c(-c3ccc(NCCCl)cc3)sc2c1 | < 0.01 | 35.6 | > 50 | > 1600
6 | Nc1ccc(-c2sc3cc(O)ccc3c2Oc2ccc(OCCN3CCCCC3)cc2)cc1 | 0.34 | 19.3 | 2.8 | 48.6

The next lines start with the values.

Row | relative binding affinity (RBA) [1] | IC50 [2] [nM] | Ratio [3] | IC50 [4] [nM] | Compound
7 | 0.25 | 27 | 2.8 | 66.7 | Oc1ccc2c(Oc3ccc(OCCN4CCCCC4)cc3)c(-c3ccc(Br)cc3)sc2c1
8 | 1 | 10.9 | 1.7 | 16.3 | Oc1ccc2c(Oc3ccc(OCCN4CCCCC4)cc3)c(-c3ccccc3)sc2c1
9 | 0.007 | 666 | 4.3 | 2360 | O=C(CCl)Nc1ccc(-c2sc3cc(O)ccc3c2Oc2ccc(OCCN3CCCCC3)cc2)cc1
